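A five-concentration, 48-hour dose response in 96-well plates underlies each endpoint, interpolated linearly between surrounding concentrations. Definition used: TGI = concentration required for complete inhibition of growth.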

One test concerns LXFL 529 NSCLC. In words: NCI tumour cell line growth inhibition, 48 h.
With `CC(=O)NNc1nc(C)c(C(=O)NNC(=O)C(=O)Nc2ccc(Cl)cc2)s1`, the TGI was more than 100 µM.

`COc1ccc2c3c1C(=O)CCCC3CO2` (centres undefined) showed a TGI of more than 100 µM.

In another test the test system is UACC-62 melanoma. Description: NCI tumour cell line growth inhibition, 48 h.
The molecule `O=C1/C(=C/c2ccc(O)cc2)CC/C1=C\c1ccc(O)cc1` displayed a TGI of more than 100 µM.

The molecule `COc1ccc(C(OCC2OC(n3cc(C)c(=O)[nH]c3=O)CC2n2cc(Cn3cc(I)c(=O)[nH]c3=O)nn2)(c2ccccc2)c2ccccc2)cc1` (centres undefined) displayed a TGI of more than 100 µM.

In the case of `CC(=O)NNc1nc(C)c(C(=O)NNC(=O)C(=O)Nc2ccc(Cl)cc2)s1`, the TGI was more than 100 µM.

Molecule `COc1ccc2c3c1C(=O)CCCC3CO2` (centres undefined) displayed a TGI of more than 100 µM.

For another test, the system named is SR leukemia. Description: NCI tumour cell line growth inhibition, 48 h.
Consider `O=C1/C(=C/c2ccc(O)cc2)CC/C1=C\c1ccc(O)cc1`, for which the TGI is more than 100 µM.

Regarding `COc1ccc(C(OCC2OC(n3cc(C)c(=O)[nH]c3=O)CC2n2cc(Cn3cc(I)c(=O)[nH]c3=O)nn2)(c2ccccc2)c2ccccc2)cc1` (centres undefined), the TGI is more than 100 µM.

In turn, `CC(=O)NNc1nc(C)c(C(=O)NNC(=O)C(=O)Nc2ccc(Cl)cc2)s1` gave a TGI of more than 100 µM.

The subject of a further test is KM12 colon. Description: NCI tumour cell line growth inhibition, 48 h.
`O=C1/C(=C/c2ccc(O)cc2)CC/C1=C\c1ccc(O)cc1` displayed a TGI of more than 100 µM.

Take `COc1ccc(C(OCC2OC(n3cc(C)c(=O)[nH]c3=O)CC2n2cc(Cn3cc(I)c(=O)[nH]c3=O)nn2)(c2ccccc2)c2ccccc2)cc1` (centres undefined): the TGI was more than 100 µM.

In turn, `CC(=O)NNc1nc(C)c(C(=O)NNC(=O)C(=O)Nc2ccc(Cl)cc2)s1` yielded a TGI of more than 100 µM.

Molecule `COc1ccc2c3c1C(=O)CCCC3CO2` (centres undefined) yielded a TGI of more than 100 µM.

For the next test, the system named is LOX IMVI melanoma. In words: NCI tumour cell line growth inhibition, 48 h.
Take `O=C1/C(=C/c2ccc(O)cc2)CC/C1=C\c1ccc(O)cc1`: the TGI is more than 100 µM.

Molecule `COc1ccc(C(OCC2OC(n3cc(C)c(=O)[nH]c3=O)CC2n2cc(Cn3cc(I)c(=O)[nH]c3=O)nn2)(c2ccccc2)c2ccccc2)cc1` (centres undefined) returned a TGI of more than 100 µM.

In turn, `CC(=O)NNc1nc(C)c(C(=O)NNC(=O)C(=O)Nc2ccc(Cl)cc2)s1` showed a TGI of more than 100 µM.

For `COc1ccc2c3c1C(=O)CCCC3CO2` (centres undefined), the TGI is more than 100 µM.

For the next test, the system named is NCI/ADR-RES ovarian. In words: NCI tumour cell line growth inhibition, 48 h.
Consider `O=C1/C(=C/c2ccc(O)cc2)CC/C1=C\c1ccc(O)cc1`, for which the TGI was more than 100 µM.

In turn, `COc1ccc(C(OCC2OC(n3cc(C)c(=O)[nH]c3=O)CC2n2cc(Cn3cc(I)c(=O)[nH]c3=O)nn2)(c2ccccc2)c2ccccc2)cc1` (centres undefined) registered a TGI of more than 100 µM.

The test system of another test is UACC-257 melanoma. Description: NCI tumour cell line growth inhibition, 48 h.
Molecule `O=C1/C(=C/c2ccc(O)cc2)CC/C1=C\c1ccc(O)cc1` returned a TGI of more than 100 µM.

The molecule `COc1ccc(C(OCC2OC(n3cc(C)c(=O)[nH]c3=O)CC2n2cc(Cn3cc(I)c(=O)[nH]c3=O)nn2)(c2ccccc2)c2ccccc2)cc1` (centres undefined) returned a TGI of more than 100 µM.

In turn, `CC(=O)NNc1nc(C)c(C(=O)NNC(=O)C(=O)Nc2ccc(Cl)cc2)s1` showed a TGI of more than 100 µM.

`COc1ccc2c3c1C(=O)CCCC3CO2` (centres undefined) had a TGI of more than 100 µM.

The subject of a further test is RPMI-8226 leukemia. In words: NCI tumour cell line growth inhibition, 48 h.
`O=C1/C(=C/c2ccc(O)cc2)CC/C1=C\c1ccc(O)cc1`: the TGI was more than 100 µM.

Take `COc1ccc(C(OCC2OC(n3cc(C)c(=O)[nH]c3=O)CC2n2cc(Cn3cc(I)c(=O)[nH]c3=O)nn2)(c2ccccc2)c2ccccc2)cc1` (centres undefined): the TGI was more than 100 µM.

For `CC(=O)NNc1nc(C)c(C(=O)NNC(=O)C(=O)Nc2ccc(Cl)cc2)s1`, the TGI is more than 100 µM.

`COc1ccc2c3c1C(=O)CCCC3CO2` (centres undefined) displayed a TGI of more than 100 µM.

For a further test, the system named is SK-OV-3 ovarian. Description: NCI tumour cell line growth inhibition, 48 h.
For `O=C1/C(=C/c2ccc(O)cc2)CC/C1=C\c1ccc(O)cc1`, the TGI is more than 100 µM.

`COc1ccc(C(OCC2OC(n3cc(C)c(=O)[nH]c3=O)CC2n2cc(Cn3cc(I)c(=O)[nH]c3=O)nn2)(c2ccccc2)c2ccccc2)cc1` (centres undefined): the TGI is more than 100 µM.

Turning to `CC(=O)NNc1nc(C)c(C(=O)NNC(=O)C(=O)Nc2ccc(Cl)cc2)s1`, the TGI is more than 100 µM.

The molecule `COc1ccc2c3c1C(=O)CCCC3CO2` (centres undefined) gave a TGI of more than 100 µM.

Another test relates to DMS 273 small cell lung. In words: NCI tumour cell line growth inhibition, 48 h.
In turn, `COc1ccc2c3c1C(=O)CCCC3CO2` (centres undefined) had a TGI of more than 100 µM.

The subject of a further test is HS 578T breast. Description: NCI tumour cell line growth inhibition, 48 h.
`O=C1/C(=C/c2ccc(O)cc2)CC/C1=C\c1ccc(O)cc1` displayed a TGI of more than 100 µM.

`COc1ccc(C(OCC2OC(n3cc(C)c(=O)[nH]c3=O)CC2n2cc(Cn3cc(I)c(=O)[nH]c3=O)nn2)(c2ccccc2)c2ccccc2)cc1` (centres undefined) displayed a TGI of more than 100 µM.

The next test has as its system T-47D breast. Description: NCI tumour cell line growth inhibition, 48 h.
`O=C1/C(=C/c2ccc(O)cc2)CC/C1=C\c1ccc(O)cc1` returned a TGI of more than 100 µM.

The molecule `COc1ccc(C(OCC2OC(n3cc(C)c(=O)[nH]c3=O)CC2n2cc(Cn3cc(I)c(=O)[nH]c3=O)nn2)(c2ccccc2)c2ccccc2)cc1` (centres undefined) registered a TGI of more than 100 µM.

The next test has as its system BT-549 breast. Description: NCI tumour cell line growth inhibition, 48 h.
The molecule `O=C1/C(=C/c2ccc(O)cc2)CC/C1=C\c1ccc(O)cc1` came in with a TGI of more than 100 µM.

As for `COc1ccc(C(OCC2OC(n3cc(C)c(=O)[nH]c3=O)CC2n2cc(Cn3cc(I)c(=O)[nH]c3=O)nn2)(c2ccccc2)c2ccccc2)cc1` (centres undefined), the TGI is more than 100 µM.

In another test the test system is SK-MEL-28 melanoma. In words: NCI tumour cell line growth inhibition, 48 h.
As for `O=C1/C(=C/c2ccc(O)cc2)CC/C1=C\c1ccc(O)cc1`, the TGI was more than 100 µM.

As for `COc1ccc(C(OCC2OC(n3cc(C)c(=O)[nH]c3=O)CC2n2cc(Cn3cc(I)c(=O)[nH]c3=O)nn2)(c2ccccc2)c2ccccc2)cc1` (centres undefined), the TGI was more than 100 µM.

For `CC(=O)NNc1nc(C)c(C(=O)NNC(=O)C(=O)Nc2ccc(Cl)cc2)s1`, the TGI was more than 100 µM.

As for `COc1ccc2c3c1C(=O)CCCC3CO2` (centres undefined), the TGI was more than 100 µM.

A further test has as its system SF-295 CNS. Description: NCI tumour cell line growth inhibition, 48 h.
Molecule `O=C1/C(=C/c2ccc(O)cc2)CC/C1=C\c1ccc(O)cc1` returned a TGI of more than 100 µM.

For the molecule `COc1ccc(C(OCC2OC(n3cc(C)c(=O)[nH]c3=O)CC2n2cc(Cn3cc(I)c(=O)[nH]c3=O)nn2)(c2ccccc2)c2ccccc2)cc1` (centres undefined), the TGI is more than 100 µM.

`CC(=O)NNc1nc(C)c(C(=O)NNC(=O)C(=O)Nc2ccc(Cl)cc2)s1` returned a TGI of more than 100 µM.

Molecule `COc1ccc2c3c1C(=O)CCCC3CO2` (centres undefined) had a TGI of more than 100 µM.

A further test concerns M14 melanoma. Description: NCI tumour cell line growth inhibition, 48 h.
The molecule `O=C1/C(=C/c2ccc(O)cc2)CC/C1=C\c1ccc(O)cc1` registered a TGI of more than 100 µM.

`COc1ccc(C(OCC2OC(n3cc(C)c(=O)[nH]c3=O)CC2n2cc(Cn3cc(I)c(=O)[nH]c3=O)nn2)(c2ccccc2)c2ccccc2)cc1` (centres undefined) registered a TGI of more than 100 µM.

Turning to `CC(=O)NNc1nc(C)c(C(=O)NNC(=O)C(=O)Nc2ccc(Cl)cc2)s1`, the TGI was more than 100 µM.

The molecule `COc1ccc2c3c1C(=O)CCCC3CO2` (centres undefined) had a TGI of more than 100 µM.

The next test has as its system SNB-78 CNS. In words: NCI tumour cell line growth inhibition, 48 h.
Turning to `CC(=O)NNc1nc(C)c(C(=O)NNC(=O)C(=O)Nc2ccc(Cl)cc2)s1`, the TGI is more than 100 µM.

Regarding `COc1ccc2c3c1C(=O)CCCC3CO2` (centres undefined), the TGI is more than 100 µM.

The next test relates to DLD-1 colon. Description: NCI tumour cell line growth inhibition, 48 h.
`COc1ccc2c3c1C(=O)CCCC3CO2` (centres undefined) had a TGI of more than 100 µM.

The subject of another test is HOP-62 NSCLC. In words: NCI tumour cell line growth inhibition, 48 h.
Turning to `O=C1/C(=C/c2ccc(O)cc2)CC/C1=C\c1ccc(O)cc1`, the TGI was more than 100 µM.

For the origin of these results see PubChem BioAssay (NCI).
